“Also recorded” adds a separate entry of the source.
Columns and labels:
pSTAT3 and MYC = settings: disclosed in U.S. Patent Publication No. 2020/0377494A1; cited from earlier work
[1] = test system: aggrecan and collagen neoepitopes; settings: disclosed in U.S. Patent Publication No. 2020/0377494A1; cited from earlier work
[2] = Properties of the CX-011 solution in Kolliphor HS 15: pH, 0.22 um filtration with UV absorbance at 323 nm, storage stability by appearance and HPLC; type: physicochemical
Experimental: Preparation of 30% (w/v) Kolliphor HS 15 in aqueous solution. Solid Kolliphor HS 15 was immersed in a water bath at 37° C. until melted. A 30% (w/v) solution was prepared by vortex mixing Kolliphor HS 15 with an appropriate amount of distilled water. The mixture was filtered through a 0.22 um PES filter (Corning).
(§1) 15 mg CX-011 was added to a 50 mL tube. A volume of 5-10 mL 30% kolliphor HS was added. […] Distilled water or other physiology buffer, for example, PBS or saline was added to the above completely dissolved solution to final volume 100 mL with gently stirring. The solution can be filtered through 0.22 um filter. The appearance and pH value was noted. The solution was clear with pH value 5-5.5 for water and saline solution and is 7.2 for PBS solution. […] The final Kolliphor HS concentration in solution is about 1.5%-3%.

[3] = Dissolution of solid CX-011 in solvents and excipient solutions, determined by visual inspection; type: physicochemical
Experimental: Confirmation of dissolution can be confirmed by visual inspection, either by the naked eye or by microscope, to detect the presence of undissolved particles. Spectroscopic methods can also be used, such as light scattering detection or absorbance spectroscopy. Apparatuses for such spectroscopic detection are well-known in the art.
Solid CX-011 (5 mg) was mixed in a solution of 20%-40% 2-Hydroxypropyl)-β-cyclodextrin (Accelachem) in water (10 mL) and the mixture sonicated for 30 minutes. Dissolution determined by visual inspection. Not soluble.
Solid CX-011 (5 mg) was mixed in a solution of 20%-40% 2-Hydroxypropyl)-β-cyclodextrin (Accelachem) in water (10 mL) and 50 μL 1N HCl and the mixture sonicated for 30 minutes. Dissolution determined by visual inspection. Not soluble.
Solid CX-011 (4 mg) was mixed in a solution of 3N HCl aqueous (2 mL) and the mixture sonicated for 30 minutes. Dissolution determined by visual inspection. Not soluble.
Solid CX-011 (2.6 mg) was mixed in a solution of ˜4N HCl in methanol (200 uL) and the mixture sonicated for 30 minutes. Dissolution determined by visual inspection. Not soluble.
Solvent was evaporated. The remaining residue was washed with ether twice, then dried. The dried residue was mixed with water (10 mL) and the mixture sonicated for 30 minutes. Dissolution determined by visual inspection. Not soluble.
Solid CX-011 (1 mg) was mixed in a solution of 10% polyvinylpyrrolidone K-30 (10 mL) and the mixture sonicated for 30 minutes. Dissolution determined by visual inspection. Not soluble.
Solid CX-011 (1.5 mg) was mixed in ethanol (0.5 mL) and the mixture sonicated for 30 minutes. Dissolution determined by visual inspection. Not soluble.
Solid CX-011 (3 mg) was mixed in propylene glycol (0.5 mL) (Spectrum) and the mixture sonicated for 30 minutes. Dissolution determined by visual inspection. Not soluble.
Water (0.5 mL) was added.
Solid CX-011 (2.8 mg) was added to PEG400 (0.5 mL) (Spectrum) and mixed on a vortexer until dissolved. Water (0.5 mL) was added.
Solid CX-011 (3.0 mg) was mixed in 30% Kolliphor® HS 15 (5 mL) (Sigma) and the mixture sonicated for 30 minutes. Dissolution determined by visual inspection.
Solid CX-011 (15 mg) was mixed in polysorbate 80 (1 mL) and the mixture sonicated for 30 minutes. The solution was clear.
as §1

Cc1ccc(-c2csc(NC(=O)c3ccccn3)n2)cc1 [CX-011]
Levels of pSTAT3 and MYC (pSTAT3 and MYC): did not increase
Generation of aggrecan and collagen neoepitopes [1]: almost completely blocked
Difference of the concentration of CX-011 before or after filtration ([2]; Example 14: 0.22 um filter, UV absorbance at 323 nm): no significant difference
pH value of the solution ([2]; Example 14: PBS solution): 7.2
pH value of the solution ([2]; Example 14: water and saline solution): 5-5.5
Appearance of the solution on storage ([2]; Example 14 solution, after 1 week at room temperature): remained clear
Stability of the compound by HPLC analysis ([2]; Example 14 solution, under preparation and storage): stable
Dissolution by visual inspection ([3]; Example 1: 5 mg in 10 mL 20%-40% 2-hydroxypropyl-β-cyclodextrin in water, sonicated 30 minutes): Not soluble
Dissolution by visual inspection ([3]; Example 2: 5 mg in 10 mL 20%-40% 2-hydroxypropyl-β-cyclodextrin in water plus 50 μL 1N HCl, sonicated 30 minutes): Not soluble
Dissolution by visual inspection ([3]; Example 3: 4 mg in 2 mL 3N HCl aqueous, sonicated 30 minutes): Not soluble
Dissolution by visual inspection ([3]; Example 4: 2.6 mg in 200 uL ~4N HCl in methanol, sonicated 30 minutes): Not soluble
Dissolution by visual inspection ([3]; Example 5: 6 mg treated with 1 eq MeSO3H in CH2Cl2, evaporated, dried residue in 10 mL water, sonicated 30 minutes): Not soluble
Dissolution by visual inspection ([3]; Example 6: 1 mg in 10 mL 10% polyvinylpyrrolidone K-30, sonicated 30 minutes): Not soluble
Dissolution by visual inspection ([3]; Example 7: 1.5 mg in 0.5 mL ethanol, sonicated 30 minutes): Not soluble
Dissolution by visual inspection ([3]; Example 8: 3 mg in 0.5 mL propylene glycol, sonicated 30 minutes): Not soluble
Appearance after addition of water ([3]; Example 9: 4 mg in 0.5 mL DMA, then 0.5 mL water added): Precipitation was observed
Dissolution by visual inspection ([3]; Example 9: 4 mg in 0.5 mL DMA, vortexed): clear solution
Appearance after addition of water ([3]; Example 10: 2.8 mg in 0.5 mL PEG400, then 0.5 mL water added): Precipitation was observed
Dissolution by visual inspection ([3]; Example 10: 2.8 mg in 0.5 mL PEG400, vortexed): dissolved
Dissolution by visual inspection ([3]; Example 11: 3.0 mg in 5 mL 30% Kolliphor HS 15, sonicated 30 minutes): Dissolved—clear solution
Dissolution by visual inspection ([3]; Example 12: 15 mg in 1 mL polysorbate 80, sonicated 30 minutes): clear
Appearance after addition of water ([3]; Example 12: 15 mg in 1 mL polysorbate 80, then 10 mL water added): precipitate was observed
Appearance of the diluted solution ([3]; Example 14: 15 mg diluted to 100 mL with water, PBS or saline, final Kolliphor HS about 1.5%-3%): clear
Dissolution by visual inspection ([3]; Example 14: 15 mg in 5-10 mL 30% Kolliphor HS, sonicated 2 hours): clear solution
Solubility in aqueous solution ([3]; aqueous solution, general statement): poorly soluble; also recorded: poor solubility

Source: patent US11974993B2, “Solution formulations of CX-011” (City of Hope, priority 2021, dated 2024)
